The record followed here is patent publication US12157741B2, “Macrocyclic inhibitors of DYRK1A” (DANA-FARBER CANCER INSTITUTE, INC., priority 2018, dated 2024).

Some results are limits rather than exact numbers.

Holding throughout (format): biochemical
One test deals with T1, DYRK1A (Homo sapiens, UniProt Q13627).
T1 construct: purchased Thermo Fisher Scientific PR7189B
As to the kind of experiment: DYRK1A enzyme assay (Promega ADP-Glo Kinase assay). The following applies: for IC50: ADP-Glo, 3 μM ATP, read-out: Enzyme activity against DYRK1A; for potency against DYRK1A (statement on Table 5): statement in words. Here is the method: All DYRK1A kinase inhibition assays were conducted by using Promega™ ADP-Glo™ Kinase assay systems (Cat No. V9102).
For DYRK1A enzyme assay, each inhibitor mixed with 0.2 μg/μL of substrate (MVBP, SignalChem, M42-51N), 3 μM ATP (Promega™, Cat No. V9102), 3 ng of DYRK1A enzyme (Thermo Fisher Scientific, PR7189B) in 384-well plate. All samples were diluted with kinase reaction buffer (40 mM Tris HCl, 10 mM MgCL2, and 0.1 μg/μL BSA (bovine serum albumin), 0.05 mM DTT). After 1 h reaction at 25° C., ADP-Glo™ (Proeg™, V9102) reagent was added and incubated at rt for 40 min. Finally, kinase detection reagent (Promega™, Cat No. V6930) was added and reacted at 25° C. for 10 min. The luminescence signals were detected by using Synergy™ Neo2 microplate reader (BioTek®). Compound inhibition curve was fitted using GraphPad Prism 8.0 software.
Background: In ADP-Glo the light output rises with the ADP produced.

A further test has as its target T2, LRRK2 (G2019S) (Homo sapiens, UniProt Q5S007, G2019S).
T2 construct: purchased SignalChem L10-12GG
In words: LRRK2(G2019S) enzyme assay (Promega ADP-Glo Kinase assay). The following applies: 25 μM ATP, read-out: Enzyme activity against LRRK2 (G2019S). On the procedure: All LRRK2 kinase inhibition assays were conducted by using Promega™ ADP-Glo™ Kinase assay systems (Cat No. V4475).
For LRRK G2019S, each compound mixed with 0.2 μg/μL of substrate, 25 μM ATP, 16 ng of LRRK2 G2019S enzyme (SignalChem, L10-12GG). All samples were diluted with kinase reaction buffer (40 mmol/L TrisHCl, 10 mmol/L MgCl2, and 0.1 μg/μL BSA, 0.05 mM DTT). After a 2 h reaction at 25° C., ADP-Glo™ (Promega™, V9102) reagent was added and incubated at rt for 40 min. Finally, kinase detection reagent (Promega™, Cat No. V6930) was added and reacted at 25° C. for 10 min. The luminescence signals were detected by using Synergy™ Neo2 microplate reader (BioTek®). Compound inhibition curve was fitted using GraphPad Prism 8.0 software.

For a further test, the target named is T3, CLK1 (Homo sapiens, UniProt P49759).
T3 construct: purchased Signalchem C57-11G
In words: CLK1 enzyme assay (Promega ADP-Glo Kinase assay). The settings on record: 10 μM ATP, read-out: Enzyme activity against CLK1. Here is the method: All CLK1 kinase inhibition assays were conducted by using Promega™ ADP-Glo™ Kinase assay systems (Cat No. V9102).
For DYRKIA enzyme assay, each inhibitor mixed with 0.1 μg/μL of substrate (MBP, SignalChem, M42-51N), 10 μM ATP (Promega™, Cat No. V9102), 1.6 ng of CLK1 enzyme (Signalchem, C57-11G) in 384-well plate. All samples were diluted with kinase reaction buffer (40 mM Tris HCl, 10 mM MgCL2, and 0.1 μg/μL BSA, 0.05 mM DTT). After 1 h reaction at 25° C., ADP-Glo™ (Promega™, Cat No. V9102) reagent was added and incubated at rt for 40 min. Finally, kinase detection reagent (Promega™, Cat No. V6930) was added and reacted at 25° C. for 10 min. The luminescence signals were detected by using Synergy™ Neo2 microplate reader (BioTek®). Compound inhibition curve was fitted using GraphPad Prism 8.0 software.

The target in a further test is T4, DYRK1B (Homo sapiens, UniProt Q9Y463).
T4 construct: purchased Invitrogen (assay run by the vendor)
As to the kind of experiment: Invitrogen Zlyte assay, DYRK1B.

T2 sequence (Q5S007 whole entry G2019S): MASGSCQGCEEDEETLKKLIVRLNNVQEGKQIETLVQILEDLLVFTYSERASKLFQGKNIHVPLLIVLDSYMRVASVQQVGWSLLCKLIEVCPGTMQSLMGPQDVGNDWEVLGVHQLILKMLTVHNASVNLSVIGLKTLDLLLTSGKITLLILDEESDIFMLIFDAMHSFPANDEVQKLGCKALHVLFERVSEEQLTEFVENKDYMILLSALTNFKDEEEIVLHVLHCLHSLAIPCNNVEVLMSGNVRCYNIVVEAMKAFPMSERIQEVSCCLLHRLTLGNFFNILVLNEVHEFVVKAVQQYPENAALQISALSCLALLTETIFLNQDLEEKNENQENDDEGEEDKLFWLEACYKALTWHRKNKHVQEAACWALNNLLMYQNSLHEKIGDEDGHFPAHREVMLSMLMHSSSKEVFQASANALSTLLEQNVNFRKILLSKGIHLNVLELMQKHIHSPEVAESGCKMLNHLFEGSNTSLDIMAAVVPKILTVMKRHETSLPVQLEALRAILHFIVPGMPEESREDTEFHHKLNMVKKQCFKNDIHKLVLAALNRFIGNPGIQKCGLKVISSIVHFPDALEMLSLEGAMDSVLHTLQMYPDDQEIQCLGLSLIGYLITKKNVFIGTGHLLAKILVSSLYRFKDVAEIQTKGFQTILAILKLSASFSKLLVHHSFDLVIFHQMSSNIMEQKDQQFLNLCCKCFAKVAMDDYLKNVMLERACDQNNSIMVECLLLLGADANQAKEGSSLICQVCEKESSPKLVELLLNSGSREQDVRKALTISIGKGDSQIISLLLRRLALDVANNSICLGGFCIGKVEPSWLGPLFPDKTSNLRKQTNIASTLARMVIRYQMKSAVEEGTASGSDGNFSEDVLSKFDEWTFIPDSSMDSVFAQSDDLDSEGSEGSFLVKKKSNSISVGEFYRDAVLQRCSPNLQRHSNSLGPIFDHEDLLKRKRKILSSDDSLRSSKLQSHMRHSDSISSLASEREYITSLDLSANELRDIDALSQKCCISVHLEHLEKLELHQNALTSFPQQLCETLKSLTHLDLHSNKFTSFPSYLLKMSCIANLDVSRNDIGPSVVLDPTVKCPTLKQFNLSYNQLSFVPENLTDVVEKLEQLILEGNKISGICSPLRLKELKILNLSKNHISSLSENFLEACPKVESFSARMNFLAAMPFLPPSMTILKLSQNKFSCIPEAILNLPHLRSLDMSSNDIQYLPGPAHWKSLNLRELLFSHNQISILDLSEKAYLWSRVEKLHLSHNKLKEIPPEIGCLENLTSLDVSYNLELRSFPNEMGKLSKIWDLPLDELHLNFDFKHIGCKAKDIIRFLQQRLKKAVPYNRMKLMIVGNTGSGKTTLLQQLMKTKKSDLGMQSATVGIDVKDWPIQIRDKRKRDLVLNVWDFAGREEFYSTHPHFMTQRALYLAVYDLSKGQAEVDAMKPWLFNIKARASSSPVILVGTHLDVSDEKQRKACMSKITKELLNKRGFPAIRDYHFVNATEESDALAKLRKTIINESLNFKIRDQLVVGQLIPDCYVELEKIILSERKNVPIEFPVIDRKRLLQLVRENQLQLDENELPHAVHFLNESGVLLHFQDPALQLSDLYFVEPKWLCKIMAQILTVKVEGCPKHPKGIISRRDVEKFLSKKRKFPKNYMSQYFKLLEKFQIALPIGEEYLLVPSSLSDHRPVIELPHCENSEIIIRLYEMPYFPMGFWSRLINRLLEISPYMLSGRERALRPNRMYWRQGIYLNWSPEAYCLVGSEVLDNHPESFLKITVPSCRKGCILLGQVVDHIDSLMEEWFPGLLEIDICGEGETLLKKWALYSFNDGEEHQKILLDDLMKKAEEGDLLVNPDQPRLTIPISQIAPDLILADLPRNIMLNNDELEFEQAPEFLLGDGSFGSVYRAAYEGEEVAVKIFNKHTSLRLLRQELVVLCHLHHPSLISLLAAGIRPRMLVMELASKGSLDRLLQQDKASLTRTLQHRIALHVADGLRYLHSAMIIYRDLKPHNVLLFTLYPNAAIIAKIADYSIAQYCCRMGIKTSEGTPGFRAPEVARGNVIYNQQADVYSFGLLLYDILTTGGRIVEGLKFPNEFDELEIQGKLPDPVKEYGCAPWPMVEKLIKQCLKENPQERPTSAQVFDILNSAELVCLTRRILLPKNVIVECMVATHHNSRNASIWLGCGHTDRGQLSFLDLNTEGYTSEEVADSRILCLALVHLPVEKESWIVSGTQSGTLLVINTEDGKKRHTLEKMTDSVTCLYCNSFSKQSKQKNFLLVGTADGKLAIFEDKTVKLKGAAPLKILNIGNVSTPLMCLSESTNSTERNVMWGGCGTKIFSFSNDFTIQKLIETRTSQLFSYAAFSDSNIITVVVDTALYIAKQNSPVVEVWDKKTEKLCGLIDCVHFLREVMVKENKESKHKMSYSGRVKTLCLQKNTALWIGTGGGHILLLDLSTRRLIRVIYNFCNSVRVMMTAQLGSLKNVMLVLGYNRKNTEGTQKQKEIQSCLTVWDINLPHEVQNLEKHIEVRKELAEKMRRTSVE
T3 sequence (P49759 whole entry): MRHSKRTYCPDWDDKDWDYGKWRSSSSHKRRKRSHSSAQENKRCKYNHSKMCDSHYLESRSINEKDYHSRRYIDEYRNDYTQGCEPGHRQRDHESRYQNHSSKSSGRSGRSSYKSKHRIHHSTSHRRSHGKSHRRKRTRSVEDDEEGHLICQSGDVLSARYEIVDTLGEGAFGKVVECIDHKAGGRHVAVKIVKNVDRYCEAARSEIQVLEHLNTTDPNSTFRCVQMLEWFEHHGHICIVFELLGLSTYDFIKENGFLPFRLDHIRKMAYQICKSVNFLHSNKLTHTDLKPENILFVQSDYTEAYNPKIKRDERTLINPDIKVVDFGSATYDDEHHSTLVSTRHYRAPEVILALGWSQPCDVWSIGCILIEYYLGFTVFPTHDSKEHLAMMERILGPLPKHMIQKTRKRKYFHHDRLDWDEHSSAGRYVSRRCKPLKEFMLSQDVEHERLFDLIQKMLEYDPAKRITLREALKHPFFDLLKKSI
T4 sequence (Q9Y463 whole entry): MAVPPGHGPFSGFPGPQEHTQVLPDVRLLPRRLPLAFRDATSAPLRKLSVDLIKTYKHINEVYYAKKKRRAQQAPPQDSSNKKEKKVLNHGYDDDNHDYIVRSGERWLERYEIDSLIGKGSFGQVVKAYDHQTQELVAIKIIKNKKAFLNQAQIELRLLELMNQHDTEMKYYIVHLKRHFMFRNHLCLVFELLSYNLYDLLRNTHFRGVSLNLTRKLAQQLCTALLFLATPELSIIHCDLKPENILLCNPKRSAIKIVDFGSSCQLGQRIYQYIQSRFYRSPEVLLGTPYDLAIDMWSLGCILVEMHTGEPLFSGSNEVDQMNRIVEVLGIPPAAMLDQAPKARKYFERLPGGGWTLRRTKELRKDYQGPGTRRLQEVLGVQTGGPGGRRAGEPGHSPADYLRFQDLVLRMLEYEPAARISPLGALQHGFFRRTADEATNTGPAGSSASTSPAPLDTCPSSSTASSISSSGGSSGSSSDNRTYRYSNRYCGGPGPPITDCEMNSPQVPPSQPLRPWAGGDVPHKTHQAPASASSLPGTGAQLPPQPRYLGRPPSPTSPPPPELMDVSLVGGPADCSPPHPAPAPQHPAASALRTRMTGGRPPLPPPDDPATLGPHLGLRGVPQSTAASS

For `CN1Cc2nn(C)cc2-c2cnc3[nH]cc(c3c2)-c2cn(nc2C(F)(F)F)CCCC1=O` [Compound 43, (Z)-31,5-dimethyl-13-(trifluoromethyl)-11H,21H,31H-5-aza-2(3,5)-pyrrolo[2,3-b]pyridina-1(4,1),3(4,3)-dipyrazolacyclononaphan-6-one], the IC50 was less than 50 nM at DYRK1A, greater than 100 nM on LRRK2 (G2019S) and less than 50 nM at CLK1. Besides, the “potency against DYRK1A (statement on Table 5)” value (“potency against DYRK1A” below) at DYRK1A is “most potent”.
The compound `COc1c2c(nn1C)CN(C(C)C)C(=O)CCCn1cc(c(C(F)(F)F)n1)-c1c(C)[nH]c3ncc-2cc13` [Compound 51, (Z)-5-isopropyl-35-methoxy-22,31-dimethyl-13-(trifluoromethyl)-11H,21H,31H-5-aza-2(3,5)-pyrrolo[2,3-b]pyridina-1(4,1),3(4,3)-dipyrazolacyclononaphan-6-one] had an IC50 against DYRK1B of 533 nM.
Same read-out and setting: the figure for `Cc1[nH]c2ncc3cc2c1-c1cn(nc1C(F)(F)F)CCCC(=O)N(C)Cc1nn(C)c(C#N)c1-3` [Compound 52, (Z)-22,31,5-trimethyl-6-oxo-13-(trifluoromethyl)-11H,21H,31H-5-aza-2(3,5)-pyrrolo[2,3-b]pyridina-1(4,1),3(4,3)-dipyrazolacyclononaphane-35-carbonitrile] is 55 nM.
Regarding `COCCn1cc2c(n1)CN(C)C(=O)CCCn1cc(c(C(F)(F)F)n1)-c1c[nH]c3ncc-2cc13` [Compound 59, (Z)-31-(2-methoxyethyl)-5-methyl-13-(trifluoromethyl)-11H,21H,31H-5-aza-2(3,5)-pyrrolo[2,3-b]pyridina-1(4,1),3(4,3)-dipyrazolacyclononaphan-6-one], the figures for the IC50 at DYRK1A, on LRRK2 (G2019S) and at CLK1 were less than 50 nM, greater than 100 nM and less than 50 nM, respectively. For the same compound, the “potency against DYRK1A” value at DYRK1A was “most potent”.
For `CN1Cc2nn(C3CCNCC3)cc2-c2cnc3[nH]cc(c3c2)-c2cn(nc2C(F)(F)F)CCCC1=O` [Compound 60, (Z)-5-methyl-31-(piperidin-4-yl)-13-(trifluoromethyl)-11H,21H,31H-5-aza-2(3,5)-pyrrolo[2,3-b]pyridina-1(4,1),3(4,3)-dipyrazolacyclononaphan-6-one], the figures for the IC50 at DYRK1A, on LRRK2 (G2019S) and at CLK1 were less than 50 nM, greater than 100 nM and less than 50 nM, respectively. Besides, the “potency against DYRK1A” value on DYRK1A was “most potent”.
On to `COCCn1nc2c(c1C#N)-c1cnc3[nH]cc(c3c1)-c1cn(nc1C(F)(F)F)CCCC(=O)N(C)C2` [Compound 61, (Z)-31-(2-methoxyethyl)-5-methyl-6-oxo-13-(trifluoromethyl)-11H,21H,31H-5-aza-2(3,5)-pyrrolo[2,3-b]pyridina-1(4,1),3(4,3)-dipyrazolacyclononaphane-35-carbonitrile], for which the IC50 was less than 50 nM at DYRK1A, greater than 100 nM on LRRK2 (G2019S) and greater than 100 nM on CLK1. For the same compound, the “potency against DYRK1A” value on DYRK1A is listed as “most potent”.
Turning to `CN1Cc2nn(C)cc2-c2cnc3[nH]cc(c3c2)-c2cn(nc2C(F)(F)F)CCC1=O` [Compound 63, (Z)-31,5-dimethyl-13-(trifluoromethyl)-11H,21H,31H-5-aza-2(3,5)-pyrrolo[2,3-b]pyridina-1(4,1),3(4,3)-dipyrazolacyclooctaphan-6-one], the IC50 on DYRK1A was 50 to 100 nM; at LRRK2 (G2019S), 50 to 100 nM; at CLK1, less than 50 nM.
Take `CN1Cc2nn(C3CCNCC3)cc2-c2cnc3[nH]cc(c3c2)-c2cn(nc2C(F)(F)F)CCC1=O` [Compound 65, (Z)-5-methyl-31-(piperidin-4-yl)-13-(trifluoromethyl)-11H,21H,31H-5-aza-2(3,5)-pyrrolo[2,3-b]pyridina-1(4,1),3(4,3)-dipyrazolacyclooctaphan-6-one]: the IC50 on DYRK1A, on LRRK2 (G2019S) and on CLK1 was greater than 100 nM each time.
In the case of `COCCn1nc2c(c1C#N)-c1cnc3[nH]cc(c3c1)-c1cn(nc1C(F)(F)F)CCC(=O)N(C)C2` [Compound 67, (Z)-31-(2-methoxyethyl)-5-methyl-6-oxo-13-(trifluoromethyl)-11H,21H,31H-5-aza-2(3,5)-pyrrolo[2,3-b]pyridina-1(4,1),3(4,3)-dipyrazolacyclooctaphane-35-carbonitrile], the IC50 was less than 50 nM on DYRK1A, greater than 100 nM on LRRK2 (G2019S) and greater than 100 nM at CLK1. The “potency against DYRK1A” value at DYRK1A was “most potent”.
Take `CN1CCCCn2cc(c(C(F)(F)F)n2)-c2c[nH]c3ncc(cc23)-c2cn(C)nc2C1=O` [Compound 75, (Z)-31,5-dimethyl-13-(trifluoromethyl)-11H,21H,31H-5-aza-2(3,5)-pyrrolo[2,3-b]pyridina-1(4,1),3(4,3)-dipyrazolacyclononaphan-4-one]: the IC50 at DYRK1A, on LRRK2 (G2019S) and on CLK1 was greater than 100 nM each time.
Regarding `CN1CCCCn2cc(c(C(F)(F)F)n2)-c2c[nH]c3ncc(cc23)-c2c(nn(C)c2C#N)C1=O` [Compound 78, (Z)-31,5-dimethyl-4-oxo-13-(trifluoromethyl)-11H,21H,31H-5-aza-2(3,5)-pyrrolo[2,3-b]pyridina-1(4,1),3(4,3)-dipyrazolacyclononaphane-35-carbonitrile], the IC50 on DYRK1A, on LRRK2 (G2019S) and at CLK1 was greater than 100 nM each time.
